These are literature values, as cited in paper PMC9901186 (bioRxiv, 2023).

Molecules are shown by their SMILES.

This series concerns NOD1.

Take `CCCCCCCCCCCC(=O)N[C@H](CCC(=O)NC(CCCC(N)C(=O)O)C(=O)O)C(=O)O` (stereo partly shown) [C12-iE-DAP]: the “greater activation of NOD1-dependent NF-κB reporter relative to iE-DAP” value is on record as ~ 100 fold.
